25 compounds from ChEMBL document CHEMBL4725402, “Discovery of thiapyran-pyrimidine derivatives as potential EGFR inhibitors” (Bioorg Med Chem, 2020) can be followed below.

A short description of data set [1]: Selectivity index, ratio of IC50 for human L02 cells to IC50 for human A549 cells assessed as reduction in cell viability measured after 72 hrs by MTT assay. Type of data set: toxicity. The settings on record: L02 cells versus A549 cells, read-out: Ratio IC50.
Data set [2] relates to HeLa. Put plainly: Antiproliferation activity against human HeLa cells assessed as reduction in cell viability measured after 72 hrs by MTT assay. The data set is classed as functional, cell-based.
The test system of data set [3] is A549. Briefly: Antiproliferation activity against human A549 cells assessed as reduction in cell viability measured after 72 hrs by MTT assay. The settings on record: A549, 72 h. The data set is classed as functional, cell-based. A general note: Formazan colour is commonly taken as a measure of viable cells.
In data set [4] the test system is NCI-H1975. Put plainly: Antiproliferation activity against human NCI-H1975 cells harboring EGFR T790M/L858R mutation assessed as reduction in cell viability measured after 72 hrs by MTT assay. The data set is classed as functional, cell-based. The settings on record: NCI-H1975, 72 h.
Data set [5] relates to MCF7. Briefly: Antiproliferation activity against human MCF7 cells assessed as reduction in cell viability measured after 72 hrs by MTT assay. Type of data set: functional, cell-based. The settings on record: MCF7, 72 h.
In data set [6] the test system is L02. Briefly: Cytotoxicity against human L02 cells assessed as reduction in cell viability measured after 72 hrs by MTT assay. The data set is classed as cell-based. The settings on record: L02, 72 h.

Bounds are passed on as bounds.

For `C/C=C/C(=O)Nc1cccc(Oc2nc(Nc3cccc(OC)c3)nc3c2CSCC3)c1`, in data set [1], the selectivity ratio at 72 h was greater than 2.37. Further, the IC50 is 13.8 µM in data set [2]; 21.1 µM in data set [3]; 12.5 µM in data set [4]; 23.4 µM in data set [5]; greater than 50 µM in data set [6].
For `C/C=C/C(=O)Nc1cccc(Oc2nc(Nc3ccc(OC)cc3)nc3c2CSCC3)c1`, the selectivity ratio at 72 h in data set [1] was greater than 2.25. In addition, the IC50 in data set [2] is greater than 50 µM; in data set [3] it was 22.2 µM; in data set [5], 24.3 µM; in data set [6], greater than 50 µM.
`C=CC(=O)Nc1cccc(Oc2nc(Nc3ccc(OC)nc3)nc3c2CSCC3)c1`: the selectivity ratio at 72 h in data set [1] is greater than 3.43. Besides, the IC50 in data set [2] was 26.2 µM; in data set [3] it was 14.6 µM; in data set [4], 13.9 µM; in data set [5], 17.2 µM; in data set [6] it was greater than 50 µM.
On to `C=CC(=O)Nc1cccc(Oc2nc(Nc3cccc(OC)c3)nc3c2CSCC3)c1`, for which the IC50 is 28.9 µM in data set [2]; 10.1 µM in data set [3]; 9.64 µM in data set [4]; greater than 50 µM in data set [5]; 48.9 µM in data set [6].
As for `CC/C=C/C(=O)Nc1cccc(Oc2nc(Nc3ccc(OC)cc3)nc3c2CSCC3)c1`, the selectivity ratio at 72 h in data set [1] is greater than 2.49. The IC50 in data set [2] was 27.2 µM; in data set [3] it was 20.1 µM; in data set [4] it was 17.2 µM; in data set [5] it was 31.4 µM; in data set [6], greater than 50 µM.
As to `CC(C)/C=C/C(=O)Nc1cccc(Oc2nc(Nc3cccc(C#N)c3)nc3c2CSCC3)c1`, the selectivity ratio at 72 h in data set [1] was greater than 1.39. Further, the IC50 in data set [2] was 22.8 µM; in data set [3] it was 35.9 µM; in data set [5] it was 29.6 µM; in data set [6], greater than 50 µM.
Taken in the same sequence, the figures for `CC(C)=CC(=O)Nc1cccc(Oc2nc(Nc3ccn(C)n3)nc3c2CSCC3)c1` were greater than 1.13, greater than 50 µM, 44.2 µM, greater than 50 µM and greater than 50 µM.
For `CC(C)=CC(=O)Nc1cccc(Oc2nc(Nc3cccc(C#N)c3)nc3c2CSCC3)c1`, in data set [1], the selectivity ratio at 72 h was greater than 1.36. Besides, the IC50 in data set [2] is 29.2 µM; in data set [3] it was 36.9 µM; in data set [5] it was greater than 50 µM; in data set [6], greater than 50 µM.
For the compound `CCC/C=C/C(=O)Nc1cccc(Oc2nc(Nc3ccc(OC)nc3)nc3c2CSCC3)c1`, the selectivity ratio at 72 h in data set [1] was greater than 4.62. The IC50 was 15.3 µM in data set [2]; 10.8 µM in data set [3]; 17.9 µM in data set [4]; 26.8 µM in data set [5]; greater than 50 µM in data set [6].
For the compound `CC/C=C/C(=O)Nc1cccc(Oc2nc(Nc3ccc(OC)nc3)nc3c2CSCC3)c1`, the selectivity ratio at 72 h in data set [1] was greater than 3.81. In addition, the IC50 is 31.2 µM in data set [2]; 13.1 µM in data set [3]; 13.2 µM in data set [4]; 31.5 µM in data set [5]; greater than 50 µM in data set [6].
Consider `COc1ccc(Nc2nc3c(c(Oc4cccc(NC(=O)C=C(C)C)c4)n2)CSCC3)cn1`, for which the selectivity ratio at 72 h in data set [1] is greater than 2.97. In addition, the half-maximal inhibitory concentration (IC50) is 29.2 µM in data set [2], 16.8 µM in data set [3], 22.2 µM in data set [5] and greater than 50 µM in data set [6].
With `COc1cccc(Nc2nc3c(c(Oc4cccc(NC(=O)C=C(C)C)c4)n2)CSCC3)c1`, in data set [1], the selectivity ratio at 72 h was greater than 2.52. The IC50 is 19.1 µM in data set [2]; 19.8 µM in data set [3]; 21.9 µM in data set [4]; greater than 50 µM in data set [5]; greater than 50 µM in data set [6].
As for `C/C=C/C(=O)Nc1cccc(Oc2nc(Nc3ccn(C)n3)nc3c2CSCC3)c1`, the IC50 was greater than 50 µM in data set [2]; greater than 50 µM in data set [3]; 35.9 µM in data set [4]; 40 µM in data set [5]; greater than 50 µM in data set [6].
Turning to `CC(C)/C=C/C(=O)Nc1cccc(Oc2nc(Nc3ccn(C)n3)nc3c2CSCC3)c1`, the selectivity ratio at 72 h in data set [1] was greater than 1.49. The IC50 in data set [2] was 40.1 µM; in data set [3], 33.5 µM; in data set [5], greater than 50 µM; in data set [6], greater than 50 µM.
As to `C=C(F)C(=O)Nc1cccc(Oc2nc(Nc3cccc(OC)c3)nc3c2CSCC3)c1`, in data set [1], the selectivity ratio at 72 h was 1.39. Besides, the IC50 was 44.8 µM in data set [2]; 29.6 µM in data set [3]; 26.1 µM in data set [4]; greater than 50 µM in data set [5]; 41.2 µM in data set [6].
As to `COc1ccc(Nc2nc3c(c(Oc4cccc(NC(=O)C=C(C)C)c4)n2)CSCC3)cc1`, in data set [1], the selectivity ratio at 72 h was greater than 1.86. The IC50 in data set [2] was 19.1 µM; in data set [3] it was 26.9 µM; in data set [5], greater than 50 µM; in data set [6], greater than 50 µM.
With `CCC/C=C/C(=O)Nc1cccc(Oc2nc(Nc3ccc(OC)cc3)nc3c2CSCC3)c1`, the selectivity ratio at 72 h in data set [1] was greater than 4.21. Besides, the IC50 was 12.8 µM in data set [2]; 11.9 µM in data set [3]; 18.9 µM in data set [4]; greater than 50 µM in data set [5]; greater than 50 µM in data set [6].
Turning to `C=CC(=O)Nc1cccc(Oc2nc(Nc3ccn(C)n3)nc3c2CSCC3)c1`, the selectivity ratio at 72 h in data set [1] was greater than 2.7. In addition, the IC50 was 25.8 µM in data set [2], 18.6 µM in data set [3], greater than 50 µM in data set [5] and greater than 50 µM in data set [6].
With `COc1ccc(Nc2nc3c(c(Oc4cccc(NC(=O)/C=C/C(C)C)c4)n2)CSCC3)cc1`, the selectivity ratio at 72 h in data set [1] is greater than 1.93. In addition, the IC50 in data set [2] is 22.9 µM; in data set [3], 25.9 µM; in data set [5] it was greater than 50 µM; in data set [6], greater than 50 µM.
Turning to `CC/C=C/C(=O)Nc1cccc(Oc2nc(Nc3cccc(OC)c3)nc3c2CSCC3)c1`, the selectivity ratio at 72 h in data set [1] is greater than 2.9. In addition, the IC50 in data set [2] is 27.2 µM; in data set [3], 17.2 µM; in data set [4], 10.8 µM; in data set [5], 24.2 µM; in data set [6], greater than 50 µM.
Regarding `C=C(C)C(=O)Nc1cccc(Oc2nc(Nc3ccn(C)n3)nc3c2CSCC3)c1`, the selectivity ratio at 72 h in data set [1] was greater than 1.06. The IC50 in data set [2] was greater than 50 µM; in data set [3], 46.9 µM; in data set [5] it was greater than 50 µM; in data set [6], greater than 50 µM.
As for `CC/C=C/C(=O)Nc1cccc(Oc2nc(Nc3cccc(C#N)c3)nc3c2CSCC3)c1`, the selectivity ratio at 72 h in data set [1] was greater than 4.95. The IC50 in data set [2] was 31.8 µM; in data set [3], 10.1 µM; in data set [4], 17.2 µM; in data set [5], 15.8 µM; in data set [6], greater than 50 µM.
`COc1ccc(Nc2nc3c(c(Oc4cccc(NC(=O)/C=C/C(C)C)c4)n2)CSCC3)cn1`: the selectivity ratio at 72 h in data set [1] is greater than 2.06. The IC50 is 27.8 µM in data set [2], 24.2 µM in data set [3], 37.1 µM in data set [5] and greater than 50 µM in data set [6].
As for `C/C=C/C(=O)Nc1cccc(Oc2nc(Nc3cccc(C#N)c3)nc3c2CSCC3)c1`, in data set [1], the selectivity ratio at 72 h was greater than 2.91. For the same compound, the IC50 was 12.8 µM in data set [2]; 17.2 µM in data set [3]; 28.1 µM in data set [4]; 21.4 µM in data set [5]; greater than 50 µM in data set [6].
For the compound `CC/C=C/C(=O)Nc1cccc(Oc2nc(Nc3ccn(C)n3)nc3c2CSCC3)c1`, the selectivity ratio at 72 h in data set [1] was greater than 1.36. The IC50 was greater than 50 µM in data set [2], 36.8 µM in data set [3], greater than 50 µM in data set [5] and greater than 50 µM in data set [6].

As usually defined, the IC50 is the concentration at which inhibition is half-maximal.
